Among the data in patent publication US11136312B2, “3,4,5-trisubstituted-1,2,4-triazoles and 3,4,5-trisubstituted-3-thio-1,2,4-triazoles and uses thereof” (Board of Trustees of Southern Illinois University, priority 2017, dated 2021) are Ki values, retold here.

What all share (test): Competitive radioligand binding, 125I-Tyr-SRIF 14, membrane preparations
The target in assay [1] is human somatostatin receptor SSTR1 (Homo sapiens (Human), UniProt P30872). The note with it: competitive binding vs 125I-Tyr-SRIF 14, human SSTR1 membranes; read-out: SST1. The protocol: (§1) Respective membrane receptor preparations were prepared in assay buffer (25 mM HEPES, 10 mM MgCl2, 1 mM CaCl2, 0.5% BSA, pH=7.4) at a 1:150 dilution. […] Binding assays were performed in triplicate for each concentration of ligand in a total volume of 200 μL radioligand (25 μL ligand, 25 μL radioligand, 150 μL receptors) and incubated at room temperature for 90 minutes using a shaking table. Binding was terminated by filtration through GF/B glass fiber filters that were presoaked in 0.5% polyethyleneimine for a minimum of 4 hours. Filters were washed 9× with 1000 μL ice cold wash buffer (50 mM Tris-HCl, pH=7.4, 0.2% BSA). Filters were scored, transferred into plastic test tubes and counted in a gamma counter (Wizard2, Perkin-Elmer). Determination of the Ki for each compound was performed using non-linear regression with GraphPad PRISM-5 software (GraphPad Software, Inc., La Jolla, Calif.).

The target in assay [2] is human somatostatin receptor SSTR5 (Homo sapiens (Human), UniProt P35346). Particulars: competitive binding vs 125I-Tyr-SRIF 14, human SSTR5 membranes; read-out: SST5. The method, then:
as §1

For assay [3], the target named is human somatostatin receptor SSTR2A (Homo sapiens (Human), UniProt P30874). The note with it: competitive binding vs 125I-Tyr-SRIF 14, human SSTR2A membranes; read-out: SST2. The method, then: as §1
In assay [4] the target is human somatostatin receptor SSTR3 (Homo sapiens (Human), UniProt P32745). Particulars: competitive binding vs 125I-Tyr-SRIF 14, human SSTR3 membranes; read-out: SST3. The method, then: Competitive radioligand binding experiments were performed using MEMBRANE TARGET Systems (Perkin-Elmer, Boston, Mass.) for human somatostatin receptors: SSTR1 (ES-520-M400UA), SSTR2A (ES-521-M400UA), SSTR3 (ES523-M400UA), SSTR4 (ES-524-M400UA) and SSTR5 (ES-522-M400UA) receptors. (See Table 1). Respective membrane receptor preparations were prepared in assay buffer (25 mM HEPES, 10 mM MgCl2, 1 mM CaCl2, 0.5% BSA, pH=7.4) at a 1:150 dilution. Binding assays were performed using 1251-Tyr-SRIF 14 (Perkin-Elmer, NEX 3890) dissolved in 1 mM HCl. Binding assays were performed in triplicate for each concentration of ligand in a total volume of 200 μL radioligand (25 μL ligand, 25 μL radioligand, 150 μL receptors) and incubated at room temperature for 90 minutes using a shaking table. Binding was terminated by filtration through GF/B glass fiber filters that were presoaked in 0.5% polyethyleneimine for a minimum of 4 hours. Filters were washed 9× with 1000 μL ice cold wash buffer (50 mM Tris-HCl, pH=7.4, 0.2% BSA). Filters were scored, transferred into plastic test tubes and counted in a gamma counter (Wizard2, Perkin-Elmer). Determination of the Ki for each compound was performed using non-linear regression with GraphPad PRISM-5 software (GraphPad Software, Inc., La Jolla, Calif.).

Sequence of human somatostatin receptor SSTR2A (P30874 whole entry): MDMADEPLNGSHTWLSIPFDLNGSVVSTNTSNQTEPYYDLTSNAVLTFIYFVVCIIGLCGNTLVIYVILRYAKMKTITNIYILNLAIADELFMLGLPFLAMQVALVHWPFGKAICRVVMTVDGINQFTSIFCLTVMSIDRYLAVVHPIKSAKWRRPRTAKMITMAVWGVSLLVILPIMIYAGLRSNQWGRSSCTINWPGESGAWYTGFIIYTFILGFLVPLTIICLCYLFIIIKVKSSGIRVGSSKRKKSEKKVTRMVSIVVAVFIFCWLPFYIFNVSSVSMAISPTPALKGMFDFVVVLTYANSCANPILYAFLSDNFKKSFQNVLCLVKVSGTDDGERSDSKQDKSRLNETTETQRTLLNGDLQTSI

On to `c1ccc(CSc2nnc(-c3c[nH]c4ccccc34)n2CCCc2c[nH]cn2)cc1` [AH-1-86, 3-(4-(3-(1H-imidazol-4-yl)propyl)-5-(benzylthio)-4H-1,2,4-triazol-3-yl)-1H-indole], for which the Ki in assay [1] and in assay [2] was more than 10 µM each time.
For `Clc1cccc(Cc2nnc(CCc3c[nH]c4ccccc34)n2CCCc2c[nH]cn2)c1` [BN-VI-56, 3-(2-(4-(3-(1H-Imidazol-4-yl)propyl)-5-(3-chlorobenzyl)-4H-1,2,4-triazol-3-yl)ethyl)-1H-indole], the Ki in assay [1] was 6.93 µM; in assay [3], more than 10 µM; in assay [2], more than 10 µM; in assay [4], more than 10 µM.
Regarding `COc1cccc(Cc2nnc(CCc3c[nH]c4ccccc34)n2CCCc2c[nH]cn2)c1` [BN-VI-61, 3-(2-(4-(3-(1H-Imidazol-4-yl)propyl)-5-(3-methoxybenzyl)-4H-1,2,4-triazol-3-yl)ethyl)-1H-indole], the Ki in assay [1], in assay [3], in assay [2] and in assay [4] was more than 10 µM throughout.
In the case of `Clc1ccc(Cc2nnc(CCc3c[nH]c4ccccc34)n2CCCc2c[nH]cn2)cc1` [BN-VI-62, 3-(2-(4-(3-(1H-Imidazol-4-yl)propyl)-5-(4-chlorobenzyl)-4H-1,2,4-triazol-3-yl)ethyl)-1H-indole], the Ki in assay [3] was more than 10 µM.
The same measure, in the same setting: then `N[C@H](Cc1c[nH]c2ccccc12)c1nnc(Cc2cccc(Cl)c2)n1CCCc1c[nH]cn1` [BN-VI-87, (R)-1-(4-(3-(1H-Imidazol-4-yl)propyl)-5-(3-chlorobenzyl)-4H-1,2,4-triazol-3-yl)-2-(1H-indol-3-yl)ethanamine], with more than 10 µM.
Same read-out and setting: then `Clc1cc(Cl)cc(Cc2nnc(CCc3c[nH]c4ccccc34)n2CCCc2c[nH]cn2)c1` [BN-VI-89, 3-(2-(4-(3-(1H-Imidazol-4-yl)propyl)-5-(3,5-dichlorobenzyl)-4H-1,2,4-triazol-3-yl)ethyl)-1H-indole], with 6.98 µM.
Turning to `FC(F)(F)c1cccc(Cc2nnc(CCc3c[nH]c4ccccc34)n2CCCc2c[nH]cn2)c1` [BN-VI-97, 3-(2-(4-(3-(1H-Imidazol-4-yl)propyl)-5-(3-(trifluoromethyl)benzyl)-4H-1,2,4-triazol-3-yl)ethyl)-1H-indole], the Ki was 5.31 µM in assay [1], more than 10 µM in assay [3], more than 10 µM in assay [2] and more than 10 µM in assay [4].
As to `Clc1ccccc1Cc1nnc(CCc2c[nH]c3ccccc23)n1CCCc1c[nH]cn1` [MM-I-17, 3-(2-(4-(3-(1H-Imidazol-4-yl)propyl)-5-(2-chlorobenzyl)-4H-1,2,4-triazol-3-yl)ethyl)-1H-indole], the Ki in assay [1], in assay [3], in assay [2] and in assay [4] was more than 10 µM each time.
In the case of `COc1ccccc1Cc1nnc(CCc2c[nH]c3ccccc23)n1CCCc1c[nH]cn1` [MM-I-21, 3-(2-(4-(3-(1H-Imidazol-4-yl)propyl)-5-(2-methoxybenzyl)-4H-1,2,4-triazol-3-yl)ethyl)-1H-indole], the Ki in assay [1], in assay [3], in assay [2] and in assay [4] was more than 10 µM each time.
`c1ccc(-c2ccc(Cc3nnc(CCc4c[nH]c5ccccc45)n3CCCc3c[nH]cn3)cc2)cc1` [MM-I-26, 3-(2-(4-(3-(1H-Imidazol-4-yl)propyl)-5-([1,1′-biphenyl]-4-ylmethyl)-4H-1,2,4-triazol-3-yl)ethyl)-1H-indole]: in assay [3], the Ki was more than 10 µM.
`FC(F)(F)Oc1cccc(Cc2nnc(CCc3c[nH]c4ccccc34)n2CCCc2c[nH]cn2)c1` [MM-I-36, 3-(2-(4-(3-(1H-imidazol-4-yl)propyl)-5-(3-(trifluoromethoxy)benzyl)-4H-1,2,4-triazol-3-yl)ethyl)-1H-indole]: the Ki in assay [1] was 4.08 µM; in assay [3], more than 10 µM.
`O=[N+]([O-])c1cccc(Cc2nnc(CCc3c[nH]c4ccccc34)n2CCCc2c[nH]cn2)c1` [MM-I-43, 3-(2-(4-(3-(1H-Imidazol-4-yl)propyl)-5-(3-nitrobenzyl)-4H-1,2,4-triazol-3-yl)ethyl)-1H-indole]: the Ki in assay [3] is more than 10 µM.
On the same count and under the same terms, then `c1ccc(COc2cccc(Cc3nnc(CCc4c[nH]c5ccccc45)n3CCCc3c[nH]cn3)c2)cc1` [MM-I-53, 3-(2-(4-(3-(1H-imidazol-4-yl)propyl)-5-(3-(benzyloxy)benzyl)-4H-1,2,4-triazol-3-yl)-ethyl)-1H-indole], with more than 10 µM; and `N#Cc1cccc(Cc2nnc(CCc3c[nH]c4ccccc34)n2CCCc2c[nH]cn2)c1` [MM-I-63, 3-((4-(3-(1H-imidazol-4-yl)propyl)-5-(2-(1H-indol-3-yl)ethyl)-4H-1,2,4-triazol-3-yl)methyl)benzonitrile], with more than 10 µM.
As for `FC(F)(F)c1cccc(Cc2nnc(Cc3c[nH]c4ccccc34)n2CCCc2c[nH]cn2)c1` [MM-I-66, 3-((4-(3-(1H-imidazol-4-yl)propyl)-5-(3-(trifluoromethyl)benzyl)-4H-1,2,4-triazol-3-yl)methyl)-1H-indole], the Ki in assay [1] is 0.588 µM; in assay [3] it was 2.33 µM; in assay [2] it was more than 10 µM; in assay [4], more than 10 µM.
Consider `CS(=O)(=O)c1cccc(Cc2nnc(Cc3c[nH]c4ccccc34)n2CCCc2c[nH]cn2)c1` [MM-I-72, 3-((4-(3-(1H-imidazol-4-yl)propyl)-5-(3-(methylsulfonyl)benzyl)-4H-1,2,4-triazol-3-yl)methyl)-1H-indole], for which the Ki in assay [1] is 0.661 µM; in assay [3], more than 10 µM.
As for `Fc1ccc2c(Cc3nnc(Cc4cccc(Br)c4)n3CCCc3c[nH]cn3)c[nH]c2c1` [MM-I-83, 3-((4-(3-(1H-imidazol-4-yl)propyl)-5-(3-bromobenzyl)-4H-1,2,4-triazol-3-yl)methyl)-6-fluoro-1H-indole], the Ki in assay [3] was 2.08 µM.
`Fc1ccc2c(Cc3nnc(Cc4cccc(C(F)(F)F)c4)n3CCCc3c[nH]cn3)c[nH]c2c1` [MM-I-87, 3-((4-(3-(1H-imidazol-4-yl)propyl)-5-(3-(trifluoromethyl)benzyl)-4H-1,2,4-triazol-3-yl)methyl)-6-fluoro-1H-indole]: in assay [3], the Ki is 3.28 µM.
In the case of `Fc1ccc2c(Cc3nnc(Cc4ccccc4)n3CCCc3c[nH]cn3)c[nH]c2c1` [MM-I-89, 3-((4-(3-(1H-imidazol-4-yl)propyl)-5-benzyl-4H-1,2,4-triazol-3-yl)methyl)-6-fluoro-1H-indole], in assay [3], the Ki was more than 10 µM.
Same read-out and setting: then `Fc1ccc(Cc2nnc(Cc3c[nH]c4ccccc34)n2CCCc2c[nH]cn2)cc1` [SK-I-16, 3-((4-(3-(1H-imidazol-4-yl)propyl)-5-(4-fluorobenzyl)-4H-1,2,4-triazol-3-yl)methyl)-1H-indole], with more than 10 µM; and `Clc1ccc(Cc2nnc(Cc3c[nH]c4ccccc34)n2CCCc2c[nH]cn2)cc1` [SK-I-22, 3-((4-(3-(1H-imidazol-4-yl)propyl)-5-(4-chlorobenzyl)-4H-1,2,4-triazol-3-yl)methyl)-1H-indole], with 7.69 µM; and `COc1ccc(Cc2nnc(CCc3c[nH]c4ccccc34)n2CCCc2c[nH]cn2)cc1` [SM-I-29, 3-(2-(4-(3-(1H-Imidazol-4-yl)propyl)-5-(4-methoxybenzyl)-4H-1,2,4-triazol-3-yl)ethyl)-1H-indole], with more than 10 µM.
As for `Cn1cc(CCc2nnc(Cc3cccc(C(F)(F)F)c3)n2CCCc2c[nH]cn2)c2ccccc21` [SM-I-76, 3-(2-(4-(3-(1H-imidazol-4-yl)propyl)-5-(3-(trifluoromethyl)benzyl)-4H-1,2,4-triazol-3-yl)ethyl)-1-methyl-1H-indole], in assay [3], the Ki was more than 10 µM.
With `CS(=O)(=O)c1cccc(Cc2nnc(CCc3c[nH]c4ccccc34)n2CCCc2c[nH]cn2)c1` [SM-I-92, 3-(2-(4-(3-(1H-imidazol-4-yl)propyl)-5-(3-(methylsulfonyl)benzyl)-4H-1,2,4-triazol-3-yl)ethyl)-1H-indole], the Ki in assay [3] is more than 10 µM.
